Experimental data from US9884828B2, “Substituted cinnolines as inhibitors of LRRK2 kinase activity” (Imago Pharmaceuticals, Inc., priority 2011, dated 2018).

What follows are compounds tested against recombinant GST-LRRK2 (wild-type) (Homo sapiens (Human), UniProt Q5S007) (assay: LRRK2 TR-FRET peptide assay (in vitro kinase activity), wild-type). Settings: 100 μM ATP, 100 nM biotin-LRRKtide substrate, 10 nM kinase, 60 minutes at room temperature.
Chain of recombinant GST-LRRK2 (wild-type) (Q5S007 whole entry): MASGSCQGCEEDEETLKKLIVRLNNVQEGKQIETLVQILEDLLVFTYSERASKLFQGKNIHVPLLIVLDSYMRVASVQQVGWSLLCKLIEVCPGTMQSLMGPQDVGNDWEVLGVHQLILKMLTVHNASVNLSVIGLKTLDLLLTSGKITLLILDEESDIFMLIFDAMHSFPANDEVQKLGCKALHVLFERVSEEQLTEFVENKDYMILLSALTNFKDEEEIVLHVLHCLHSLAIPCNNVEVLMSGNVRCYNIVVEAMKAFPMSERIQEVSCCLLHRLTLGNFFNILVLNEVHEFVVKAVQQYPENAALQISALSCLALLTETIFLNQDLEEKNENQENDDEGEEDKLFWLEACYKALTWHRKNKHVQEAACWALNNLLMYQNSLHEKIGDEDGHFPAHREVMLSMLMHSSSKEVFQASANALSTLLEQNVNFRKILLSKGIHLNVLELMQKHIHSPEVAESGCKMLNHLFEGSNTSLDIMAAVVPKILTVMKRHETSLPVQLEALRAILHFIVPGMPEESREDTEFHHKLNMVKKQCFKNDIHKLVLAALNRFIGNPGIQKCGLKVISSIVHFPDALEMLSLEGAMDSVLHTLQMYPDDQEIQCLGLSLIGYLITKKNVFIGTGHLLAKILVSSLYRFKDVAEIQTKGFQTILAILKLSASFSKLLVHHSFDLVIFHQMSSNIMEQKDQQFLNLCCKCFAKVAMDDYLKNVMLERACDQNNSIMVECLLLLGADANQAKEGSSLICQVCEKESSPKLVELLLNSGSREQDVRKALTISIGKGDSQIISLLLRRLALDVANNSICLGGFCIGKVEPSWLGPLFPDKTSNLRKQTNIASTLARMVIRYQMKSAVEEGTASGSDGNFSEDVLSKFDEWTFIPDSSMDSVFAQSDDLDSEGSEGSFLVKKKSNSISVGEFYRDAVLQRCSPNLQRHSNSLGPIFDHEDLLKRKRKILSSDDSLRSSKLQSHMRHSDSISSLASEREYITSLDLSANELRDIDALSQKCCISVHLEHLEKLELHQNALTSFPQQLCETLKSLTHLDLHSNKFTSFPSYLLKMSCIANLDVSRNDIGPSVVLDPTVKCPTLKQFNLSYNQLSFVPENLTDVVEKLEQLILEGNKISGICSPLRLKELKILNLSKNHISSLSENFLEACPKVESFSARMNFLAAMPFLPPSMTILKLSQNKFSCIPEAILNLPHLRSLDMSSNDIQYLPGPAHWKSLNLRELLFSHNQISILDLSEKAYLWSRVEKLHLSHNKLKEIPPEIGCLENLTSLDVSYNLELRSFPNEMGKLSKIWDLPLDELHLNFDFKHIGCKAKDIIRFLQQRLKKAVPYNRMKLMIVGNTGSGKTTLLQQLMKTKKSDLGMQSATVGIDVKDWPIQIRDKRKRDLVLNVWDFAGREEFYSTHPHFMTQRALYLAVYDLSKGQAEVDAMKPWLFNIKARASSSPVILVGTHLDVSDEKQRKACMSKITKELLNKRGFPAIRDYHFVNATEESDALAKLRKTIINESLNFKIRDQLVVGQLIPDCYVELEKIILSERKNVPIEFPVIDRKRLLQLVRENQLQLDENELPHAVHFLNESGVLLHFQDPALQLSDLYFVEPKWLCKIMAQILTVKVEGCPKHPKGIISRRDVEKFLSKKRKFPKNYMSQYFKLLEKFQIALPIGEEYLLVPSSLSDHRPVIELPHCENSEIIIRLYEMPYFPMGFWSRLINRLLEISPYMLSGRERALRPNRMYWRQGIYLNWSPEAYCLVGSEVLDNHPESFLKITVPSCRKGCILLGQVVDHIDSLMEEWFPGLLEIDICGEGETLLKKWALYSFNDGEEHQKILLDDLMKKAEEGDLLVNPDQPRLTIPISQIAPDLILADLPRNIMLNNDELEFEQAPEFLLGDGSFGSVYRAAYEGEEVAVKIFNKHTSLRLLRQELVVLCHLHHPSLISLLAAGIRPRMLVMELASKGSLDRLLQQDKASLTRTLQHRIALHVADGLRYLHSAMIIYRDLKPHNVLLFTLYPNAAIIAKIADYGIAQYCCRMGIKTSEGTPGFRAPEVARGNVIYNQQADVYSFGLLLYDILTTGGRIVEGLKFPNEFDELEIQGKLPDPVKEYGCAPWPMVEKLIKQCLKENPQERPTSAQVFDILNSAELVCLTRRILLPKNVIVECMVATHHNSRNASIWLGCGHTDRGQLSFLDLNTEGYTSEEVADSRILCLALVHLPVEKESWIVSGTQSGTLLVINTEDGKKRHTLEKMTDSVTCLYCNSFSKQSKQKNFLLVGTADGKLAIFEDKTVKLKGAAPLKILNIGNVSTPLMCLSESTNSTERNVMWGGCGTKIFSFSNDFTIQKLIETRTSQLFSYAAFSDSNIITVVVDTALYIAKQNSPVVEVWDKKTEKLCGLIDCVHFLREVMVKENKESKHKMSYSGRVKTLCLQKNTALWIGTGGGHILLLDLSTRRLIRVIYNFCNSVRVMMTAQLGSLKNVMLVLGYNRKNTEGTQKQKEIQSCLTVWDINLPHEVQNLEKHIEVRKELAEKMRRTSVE
Assay type: biochemical
Method: Compounds as described herein (compounds of Formula I, e.g., compounds of the above Examples) are tested for their in vitro kinase activities using various LRRK2 (including LRRK2 G2019S mutant) assays. […] Serially diluted compounds (1% DMSO as co-solvent) were pre-incubated with recombinant GST-LRRK2 (wild-type, or G2019S mutant, Invitrogen) for 15 minutes at room temperature in 384-well Corning black plates. […] The inhibition of each well was calculated using the control and background readings for that plate. IC50 values were determined from dose-response curves using eight concentrations from the serial dilution of the test compounds.
For `CS(=O)(=O)c1ccc(-c2ccc3c(N)c(C(N)=O)nnc3c2)cc1` [Compound 1-5, 4-amino-7-(4-(methylsulfonyl)phenyl)cinnoline-3-carboxamide], the IC50 was 140 nM. Compound `NC(=O)c1nnc2cc(-c3cccc(N4CCOCC4)c3)ccc2c1N` [Compound 1-6, 4-amino-7-(3-morpholinophenyl)cinnoline-3-carboxamide] has an IC50 of 120 nM. In the case of `CN(C)c1ccc(-c2ccc3c(N)c(C(N)=O)nnc3c2)cc1` [Compound 1-7, 4-amino-7-(4-(dimethylamino)phenyl)cinnoline-3-carboxamide], the IC50 is reported as 130 nM. With `CN(C)c1cccc(-c2ccc3c(N)c(C(N)=O)nnc3c2)c1` [Compound 1-8, 4-amino-7-(3-(dimethylamino)phenyl)cinnoline-3-carboxamide] the IC50 was 250 nM. In the case of `NC(=O)c1nnc2cc(-c3ccc(N4CCOCC4)cc3)ccc2c1N` [Compound 1-9, 4-amino-7-(4-morpholinophenyl)cinnoline-3-carboxamide], the IC50 is reported as 29700 nM. Work on `CC(C)(C)c1ccc2nnc(C(N)=O)c(N)c2c1` [Compound 1-186, 4-amino-6-tert-butylcinnoline-3-carboxamide] yielded an IC50 of 4000 nM. `CC(C)Nc1c(C(N)=O)nnc2cc(-c3ccc(S(C)(=O)=O)cc3)ccc12` [Compound 2-17, 4-(isopropylamino)-7-(4-(methylsulfonyl)phenyl)cinnoline-3-carboxamide] was tested, and the IC50 was 15 nM. With `CC(C)Nc1c(C#N)nnc2cc(-c3ccc(S(C)(=O)=O)cc3)ccc12` [Compound 2-18, 4-(isopropylamino)-7-(4-(methylsulfonyl)phenyl)cinnoline-3-carbonitrile] the IC50 was 620 nM. `CS(=O)(=O)c1ccc(-c2ccc3c(NC4CCC4)c(C(N)=O)nnc3c2)cc1` [Compound 2-19, 4-(cyclobutylamino)-7-(4-(methylsulfonyl)phenyl)cinnoline-3-carboxamide] gave an IC50 of 10 nM. Compound `CN1CCC(Nc2c(C(N)=O)nnc3cc(-c4ccc(S(C)(=O)=O)cc4)ccc23)CC1` [Compound 2-21, 4-(1-methylpiperidin-4-ylamino)-7-(4-(methylsulfonyl)phenyl)cinnoline-3-carboxamide] has an IC50 of 180 nM. `CS(=O)(=O)c1ccc(-c2ccc3c(NC4CCOC4)c(C(N)=O)nnc3c2)cc1` (stereo not drawn) [Compound 2-23, 7-(4-(methylsulfonyl)phenyl)-4-(tetrahydrofuran-3-ylamino)cinnoline-3-carboxamide] gave an IC50 of 17 nM. `CS(=O)(=O)c1ccc(-c2ccc3c(NC4CCOCC4)c(C(N)=O)nnc3c2)cc1` [Compound 2-25, 7-(4-(methylsulfonyl)phenyl)-4-(tetrahydro-2H-pyran-4-ylamino)cinnoline-3-carboxamide] was tested, and the IC50 was 23 nM. `CS(=O)(=O)c1ccc(-c2ccc3c(NC4COC4)c(C(N)=O)nnc3c2)cc1` [Compound 2-27, 7-(4-(methylsulfonyl)phenyl)-4-(oxetan-3-ylamino)cinnoline-3-carboxamide] gave an IC50 of 180 nM. `CS(=O)(=O)c1ccc(-c2ccc3c(NC4CC4)c(C(N)=O)nnc3c2)cc1` [Compound 2-29, 4-(cyclopropylamino)-7-(4-(methylsulfonyl)phenyl)cinnoline-3-carboxamide] gave an IC50 of 47 nM. `CC(C)Nc1c(C(N)=O)nnc2cc(-c3cncnc3)ccc12` [Compound 2-33, 4-(isopropylamino)-7-(pyrimidin-5-yl)cinnoline-3-carboxamide] gave an IC50 of 210 nM. `CC(C)Nc1c(C(N)=O)nnc2cc(-c3cnn(C)c3)ccc12` [Compound 2-35, 4-(isopropylamino)-7-(1-methyl-1H-pyrazol-4-yl)cinnoline-3-carboxamide] showed an IC50 of 9 nM. With `CC[C@@H](C)Nc1c(C(N)=O)nnc2cc(-c3ccc(S(C)(=O)=O)cc3)ccc12` [Compound 2-37, (R)-(sec-butylamino)-7-(4-(methylsulfonyl)phenyl)cinnoline-3-carboxamide] the IC50 was under 6 nM. `CC[C@@H](C)Nc1c(C#N)nnc2cc(-c3ccc(S(C)(=O)=O)cc3)ccc12` [Compound 2-38, (R)-4-(sec-butylamino)-7-(4-(methylsulfonyl)phenyl)cinnoline-3-carbonitrile] was tested, and the IC50 was 550 nM.
